Key:
[1] = 298.15 K, 101.33 kPa, Liquid
[2] = xn = mol fraction of the nth substance listed; details: 298.15 K, 101 kPa, Liquid; for viscosity: Capillary tube (Ostwald / Ubbelohde) method; for mass density: Vibrating tube method
[3] = refractive index (Na D-line) (dimensionless); xn = mol fraction of the nth substance listed; details: 298.15 K, 101 kPa, Liquid, Standard Abbe refractometry

CCCCCCCCn1cc[n+](C)c1.O=S(=O)([N-]S(=O)(=O)C(F)(F)F)C(F)(F)F
[1]
Details | mass density [kg/m3] | viscosity [mPa·s]
Capillary tube (Ostwald / Ubbelohde) method | – | 92.51
Pycnometric method | 1320.59 | –

CCCCCCCCn1cc[n+](C)c1.O=S(=O)([N-]S(=O)(=O)C(F)(F)F)C(F)(F)F + COC(C)=O
Details | mass density, [2] [kg/m3] | refractive index, [3] | viscosity, [2] [mPa·s]
x2 = 0.0699 | 1314.77 | 1.4319 | 75.62
x2 = 0.1317 | 1308.87 | 1.43089 | 63.25
x2 = 0.1748 | 1304.45 | 1.43009 | 56.12
x2 = 0.2177 | 1299.57 | 1.42927 | 49.13
x2 = 0.3226 | 1285.83 | 1.42694 | 33.76
x2 = 0.4105 | 1271.88 | 1.42453 | 23.79
x2 = 0.5011 | 1253.68 | 1.42124 | 15.98
x2 = 0.6001 | 1228.33 | 1.41684 | 9.815
x2 = 0.6992 | 1193.95 | 1.41055 | 5.527
x2 = 0.7872 | 1151.29 | 1.40296 | 3.066
x2 = 0.8984 | 1067.39 | 1.387 | 1.206

COC(C)=O [methyl ethanoate] + CO
Details | mass density, [2] [kg/m3] | refractive index, [3] | viscosity, [2] [mPa·s]
x1 = 0.0939 | 810.62 | 1.3322 | 0.491
x1 = 0.1986 | 833.17 | 1.33757 | 0.452
x1 = 0.3009 | 851.78 | 1.34192 | 0.417
x1 = 0.4016 | 867.5 | 1.3456 | 0.393
x1 = 0.4943 | 880.02 | 1.34851 | 0.378
x1 = 0.5851 | 890.77 | 1.35095 | 0.369
x1 = 0.6941 | 902.17 | 1.35349 | 0.361
x1 = 0.7694 | 909.19 | 1.35503 | 0.358
x1 = 0.8875 | 918.93 | 1.35712 | 0.358

CCCCCCCCn1cc[n+](C)c1.O=S(=O)([N-]S(=O)(=O)C(F)(F)F)C(F)(F)F + CO
Details | mass density, [2] [kg/m3] | refractive index, [3] | viscosity, [2] [mPa·s]
x2 = 0.0654 | 1316.5 | 1.43207 | 78.34
x2 = 0.0863 | 1315.1 | 1.43188 | 74.57
x2 = 0.2134 | 1305.18 | 1.42995 | 53.65
x2 = 0.3138 | 1295.08 | 1.42809 | 40.77
x2 = 0.3873 | 1285.91 | 1.42619 | 32.92
x2 = 0.5038 | 1267.04 | 1.42266 | 22.27
x2 = 0.6155 | 1240.79 | 1.41741 | 14.57
x2 = 0.7018 | 1210.98 | 1.41157 | 9.493
x2 = 0.805 | 1154.04 | 1.40017 | 4.919
x2 = 0.902 | 1052.54 | 1.38017 | 2.144

From the NIST ThermoML archive (doi:10.1016/j.jct.2009.06.007)
